{"source": "patent US7829662B2", "about": "“Method of treating apoptosis and compositions thereof” (Dana Farber Cancer Institute, Inc., priority 2001, dated 2010)", "molecules": {"B1": {"name": "myristoylated p7/p15 BID complex: Wt p22 BID cleaved with recombinant caspase 8 into the active p7/p15 BID complex (protein)", "p7": "MDSEVSNGSGLGAKHITDLLVFGFLQSSGCTRQELEVLGRELPVQAYWEADLEDELQTD", "p15": "GSQASRSFNQGRIEPDSESQEEIIHNIARHLAQIGDEMDHNIQPTLVRQLAAQFMNGSLSEEDKRNCLAKALDEVKTAFPRDMENDKAMLIMTMLLAKKVASHAPSLLRDVFHTTVNFINQNLFSYVRNLVRNEMD", "modifications": "left off: small tags and cut ends"}}, "key": {"[1]": {"system": "calcein loaded mitochondria", "test": "Release of matrix-entrapped calcein (transient PTP opening)", "format": "biochemical, Balb/cJ mice", "details": "preincubated 3 min with 200 nmol/mg suramin; 320 pmol/mg tBID, 30 min", "protocol": "To assess calcein release, mitochondria suspended in IB without BSA were loaded with 10 nmol×mg protein^−1 calcein-AM (Molecular Probes, Eugene, Oreg.) for 20 mins at room temperature in the dark. Following two washes in IB, the calcein loaded mitochondria were resuspended in IB at a final concentration of 10 mg/ml. 0.5 mg/ml calcein loaded mitochondria were incubated in EB and treated as described. After the indicated time, mitochondria were pelleted. Calcein was measured in an LS-50B spectrofluorimeter (Perkin Elmer) with excitation and emission wavelengths set at 488±2.5 nm and 542±2.5 nm, respectively.\nAfter 30 min mitochondria were spun at 14000 g for 3 min at 4 C and the calcein content in the pellet and in the supernatant was determined. […] To determine if a BID α6 mutation variant, BID α6 mutein (SEQ ID NO:7), would inhibit cytochrome c release, His-tag p22 wt BID and the BID α6 mutein were expressed, purified on a Ni^2+ column, and cleaved with caspase 8.\nMitochondria were loaded with calcein and treated with 10 μM BID α6 14mer. Where noted, mitochondria were pretreated with 1 μM CsA. At the indicated time, mitochondria were pelleted by centrifugation and calcein in the pellet and in the supernatant was determined."}, "mitochondria [2]": {"system": "mitochondria", "test": "Cytochrome c release from isolated liver mitochondria (immunoblot densitometry or ELISA)", "format": "biochemical, Balb/cJ mice", "protocol": "Mitochondria were isolated from liver of Balb/cJ mice by standard differential centrifugation, and resuspended in isolation buffer (IB) (0.2 M sucrose, 10 mM Tris-MOPS pH 7.4, 0.1 mM EGTA-Tris, 0.1% delipidated BSA).\nAt the indicated time, mitochondria were pelleted by centrifugation at 12000×g at 4° C. for 3 min, and resuspended in the same volume of EB. Cytochrome c release was determined either by densitometry (Stratagene Eagle Eye II, BioRad) of immunoblots, or by rat/mouse specific ELISA performed on mitochondrial pellet and supernatant diluted 1:20 in PBS containing 0.5% Triton X-100 (R&D systems, MN). Cytochrome c is reported as the percentage of the supernatant over the total (pellet plus supernatant).\nFor SDS-PAGE, 20 μg of mitochondrial protein was loaded in each lane of a 12% NuPAGE (NoVex, CA) gel. After separation, proteins were transferred onto PVDF membranes (Immobilon-P, Millipore, Calif.) and membranes were probed as indicated with the following primary antibodies: anti-cytochrome c (Pharmingen, CA, 1:1000); anti-BID (1:1500); anti-BAK (Calbiochem, CA, 1:1000). HRPO-conjugated secondary antibodies (CalTag, CA, 1:2000) were visualized by chemiluminescence (Amersham, N.J.).\nMitochondria were incubated with increasing amounts of digitonin to assess how much cytochrome c was released from IMS by the selective solubilization of the OM (Hoppel and Cooper, 107, 367-375, 1968). To monitor interaction of digitonin with the […], uncoupled respiration in the presence of excess exogenous cytochrome c was assessed. Specifically 0.5 mg/ml mitochondria was incubated in EB with the indicated concentration of digitonin. After 5 minutes, mitochondria were centrifuged and cytochrome c content in the resulting pellet and supernatant were determined as described. Uncoupled JO2, uncoupled respiratory rate was recorded in parallel experiments. After 5 minutes of incubation with the indicated concentration of digitonin, mitochondria were treated with 400 pmol CCCP×mg protein-1 in the presence of 10 nmol cytochrome c×mg protein."}, "mitochondria [3]": {"system": "mitochondria", "test": "Adenylate kinase (AK) release from mitochondria", "format": "biochemical, Balb/cJ mice", "details": "preincubation: 800 pmol CsA × mg protein^−1 or 0.1 μg × mg protein^−1 anti-BAK Ab", "protocol": "AK release was determined similar to that described for cytochrome c release. AK was quantified measuring its enzymatic activity by assessing the rate of NADH oxidation at 366 nm using a Beckman DU-10 spectrophotometer. 10 μl of the supernatant or pellet were added to a reaction mixture containing 0.5 mM phosphoenolpyruvate, ATP, AMP, 1 mM NADH, and 60 units of pyruvate kinase and lactate dehydrogenase, in 130 mM KCl, 6 mM MgSO4 and 100 mM Tris-Cl. Final volume 0.1 ml, pH 7.4, 25° C. AK release is reported (as described for cytochrome c) as the percentage of the supernatant over the total (pellet plus supernatant)."}, "Wt and DKO MEFs": {"system": "Wt and DKO MEFs", "test": "TEM morphology of mitochondria in cells after death stimuli", "format": "cell-based", "details": "12 hrs after treatment; 2 μM thapsigargin, 2 μg/ml brefeldin A, 1 μg/ml tunicamycin", "protocol": "For apoptosis induction, MEFs were plated in 24-well plates at a density of 10^4 cells/well and grown for 24 hrs (Wei et al, 2001). Apoptosis was initiated by 2 μM thapsigargin, 2 μg/ml brefeldin A, 1 μg/ml tunicamycin or by 5 hrs of heat shock (43° C. in a humidified atmosphere of 95% air 5% CO2). Apoptosis was detected by flow cytometric detection of annexin V staining (BD Pharmingen) 24 hrs after the induction of cell death.\nWt and DKO MEFs were treated where indicated with brefeldin A or heat shock. After 12 hrs cells were fixed and imaged. Bar, 200 nm. The insets show 2× magnification of the boxed mitochondria. […] Wt and DKO MEFs were treated with the indicated death stimulus and after 12 hrs cells were fixed, stained and TEMs collected. Morphometric analysis was conducted."}, "mitochondria [4]": {"system": "mitochondria", "test": "Mitochondrial swelling by side scatter at 545 nm", "format": "biochemical, Balb/cJ mice", "details": "400 μM Ca^2+, positive control", "protocol": "tBID was evaluated to determine if it causes any swelling or depolarization that might reflect an opening of the PTP. Swelling of 0.5 mg/ml mitochondria incubated in EB was monitored by changes in side scatter at 545±2.5 nm using LS-50B spectrofluorimeter equipped with magnetic stirring at 25° C. Membrane potential changes of 0.5 mg/ml mitochondria incubated in experimental buffer were monitored from the dequenching of a 0.3 μM Rhodamine 123 (Molecular Probes, OR) solution in a LS-50B spectrofluorimeter at 25° C., using excitation and emission wavelengths set at 503±2.5 nm and 525±5 nm, respectively.\nTo determine if the BID α6 14mer (SEQ ID NO:1) induced mitochondrial swelling or release of cytochrome c across the mitochondrial outer membrane, mitochondria at 1 mg/ml were incubated in experimental buffer and, where indicated, 20 μM Ca^2+ and 10 μM 14mer were added. Where noted, mitochondria were preincubated with CsA. […] Mitochondria were incubated with 10 μM 14mer in the presence or in the absence of 1 μM CsA. At the indicated time in minutes, mitochondria were pelleted by centrifugation and cytochrome c in the pellet and in the supernatant was determined."}, "wt mitochondria [5]": {"system": "wt mitochondria", "test": "Ascorbate/TMPD-driven respiration assay", "format": "biochemical, Balb/cJ mice", "details": "200 nmol Ca^2+ × mg protein^−1", "protocol": "Symbols used are detailed in the legend. […] (a), no additions. […] Arrow, 6 mM ascorbate-Tris and 300 μM TMPD were added. Assays were developed to assess the amount of cytochrome c freely available in the IMS (FIGS. 3A, B). […] After the indicated time, 400 pmol CCCP and 1 nmol antimycin A×mg protein^−1 were added, and the reaction transferred to a Clark type oxygen electrode chamber. Final volume was 1 ml, 25° C. After 2 min, 6 mM ascorbate was added, followed after a further 3 min by 300 μM TMPD. The ascorbate-driven O2 consumption rate over the total TMPD-driven rate is plotted as a percentage of the ratio in the untreated mitochondria."}, "wt mitochondria [6]": {"system": "wt mitochondria", "test": "Cytochrome b5-dependent NADH oxidation assay", "format": "biochemical, Balb/cJ mice", "protocol": "(d), mitochondria were preincubated for 2 min with 800 pmol CsA×mg protein^−1. (a), no additions. After 15 min, respiratory chain inhibitors were added and after another 2 minutes NADH fluorescence reading started. Arrow, 20 nmol NADH×mg protein^−1. In (e), 200 nmol mersalyl×mg protein was added 1 min before NADH.\nIn the cytochrome b5-dependent NADH oxidation assay, 1 mg/ml mitochondria were incubated in EB and treated as indicated. 400 pmol CCCP, 2 nmol rotenone and 1 nmol antimycin A×mg protein^−1 were added after the time indicated and the reaction transferred to a cuvette. After 2 min, 10 μM NADH was added and its oxidation monitored as the decrease in NADH fluorescence in a LS50B spectrofluorimeter (Perkin Elmer) set with λex=366 nm and λem=455 nm, with 5 nm slits."}}, "note": "“Also recorded” adds a separate entry of the source. Peptide text beside a SMILES is read from it. * marks the point of attachment. Cbz = O=C(OCc1ccccc1)*; CH2F = FC*"}
{"molecule": "Cc1ccc(C(=O)Nc2ccc(S(=O)(=O)O)c3cc(S(=O)(=O)O)cc(S(=O)(=O)O)c23)cc1NC(=O)c1cccc(NC(=O)Nc2cccc(C(=O)Nc3cc(C(=O)Nc4ccc(S(=O)(=O)O)c5cc(S(=O)(=O)O)cc(S(=O)(=O)O)c45)ccc3C)c2)c1", "note": "[suramin]", "values": [{"measurement": "effect on tBID-induced calcein release (transient permeability transition)", "setting": "[1]", "value": "blocked tBID-induced transient permeability transition; also recorded: specifically inhibits calcein release induced by tBID"}]}
{"molecule": "COC(=O)C[C@H](NC(=O)[C@H](C)NC(=O)[C@@H](NC(=O)OCc1ccccc1)C(C)C)C(=O)CF", "note": "[zVAD-fmk] (Cbz-Val-Ala-Asp(OMe)-CH2F)", "values": [{"measurement": "effect on tBID induced cytochrome c release", "setting": "mitochondria [2]; preincubation: 800 pmol CsA × mg protein^−1 or 0.1 μg × mg protein^−1 anti-BAK Ab", "value": "Neither anti-BCL-XL antibody nor the broad specificity caspase inhibitor zVAD-fmk had any effect"}, {"measurement": "effect on tBID induced AK release", "setting": "mitochondria [3]", "value": "Neither anti-BCL-XL antibody nor the broad specificity caspase inhibitor zVAD-fmk had any effect"}]}
{"molecule": "C/C=C(/C)C(=O)O[C@H]1C(C)=C2[C@H]([C@@H]1OC(=O)CCCCCCC)[C@@](C)(OC(C)=O)C[C@H](OC(=O)CCC)[C@@]1(O)[C@H]2OC(=O)[C@@]1(C)O", "note": "[thapsigargin]", "values": [{"measurement": "mitochondrial morphology in cells", "setting": "Wt and DKO MEFs", "value": "frequent mitochondria with Class II morphology"}]}
{"molecule": "[Ca+2]", "note": "[Ca^2+]", "values": [{"measurement": "mitochondrial swelling", "setting": "mitochondria [4]", "value": "maximal swelling"}, {"measurement": "ascorbate-driven respiration", "setting": "wt mitochondria [5]", "value": "increases the ascorbate-driven respiration"}, {"measurement": "cytochrome b5-dependent NADH oxidation rate", "setting": "wt mitochondria [6]; 200 nmol Ca^2+ × mg protein^−1", "value": "increased the rate of NADH oxidation"}]}
{"molecule": "NH2-XMLXXXXLLAAAVA-COOH [BID α6 mutein, BID α6 mutation variant where two lysine residues were changed to alanine residues; p7/p15 caspase cleaved]", "values": [{"measurement": "cytochrome c released from mitochondria", "setting": "mitochondria [2]; 1.6 pmol p7/p15 caspase cleaved BID × mg protein^−1", "value": "~20", "unit": "%"}, {"measurement": "cytochrome c release from mitochondria", "setting": "mitochondria [2]; 1.6 pmol p7/p15 caspase cleaved BID × mg protein^−1, compared with wt p7/p15 BID", "value": "impaired release of cytochrome c; also recorded: does not completely release cytochrome c"}, {"measurement": "cytochrome c mobilization (cytochrome b5-dependent NADH oxidation)", "setting": "wt mitochondria [6]; BID α6 mutein compared to wt", "value": "cytochrome c had not been mobilized; also recorded: fails to mobilize cytochrome c"}]}
{"molecule": "COC(CNC(=O)c1ccccc1OCC(=O)O)[CH2][Hg][OH]", "note": "(centres unmarked) [mersalyl]", "values": [{"measurement": "effect on increases in NADH oxidation", "setting": "wt mitochondria [6]; 200 nmol mersalyl × mg protein added 1 min before NADH", "value": "totally inhibited"}]}
{"molecule": "tunicamycin", "values": [{"measurement": "mitochondrial morphology in cells", "setting": "Wt and DKO MEFs", "value": "frequent mitochondria with Class II morphology"}]}
{"molecule": "C[C@H]1CCC/C=C/[C@@H]2C[C@H](O)C[C@H]2[C@H](O)/C=C/C(=O)O1", "note": "[brefeldin A]", "values": [{"measurement": "mitochondrial morphology in cells", "setting": "Wt and DKO MEFs", "value": "frequent mitochondria with Class II morphology"}]}
{"molecule": "B1", "values": [{"measurement": "cytochrome c release from mitochondria", "setting": "mitochondria [2]; 0.32 pmol × mg protein^−1", "value": "Complete cytochrome c release"}]}
